In the NIST ThermoML archive (doi:10.1021/je100774p):
± gives the expanded uncertainty stated by the source.

Assay: mn = molality of the nth substance listed, in mol/kg
Conditions: 101 kPa, Liquid; for viscosity: Capillary tube (Ostwald / Ubbelohde) method

O=C(O)c1cccnc1 [3-carboxylpyridine] + O
Conditions	mass density, 293.15 K [kg/m3]	mass density, 298.15 K [kg/m3]	mass density, 303.15 K [kg/m3]	mass density, 308.15 K [kg/m3]	mass density, 313.15 K [kg/m3]	viscosity, 293.15 K [mPa·s]	viscosity, 298.15 K [mPa·s]	viscosity, 303.15 K [mPa·s]	viscosity, 308.15 K [mPa·s]	viscosity, 313.15 K [mPa·s]
m1 = 0.004283	998.41 ± 0.16	997.22 ± 0.16	995.82 ± 0.16	994.28 ± 0.17	992.41 ± 0.17	1.004 ± 0.008	0.8912 ± 0.007	0.7981 ± 0.0061	0.7201 ± 0.0055	0.6538 ± 0.0051
m1 = 0.006512	998.5 ± 0.16	997.3 ± 0.16	995.95 ± 0.16	994.35 ± 0.16	992.59 ± 0.17	1.005 ± 0.008	0.8917 ± 0.007	0.7985 ± 0.0061	0.7205 ± 0.0055	0.6543 ± 0.0051
m1 = 0.008188	–	–	–	–	–	1.006 ± 0.008	0.8923 ± 0.007	0.7989 ± 0.0061	0.7211 ± 0.0055	0.6547 ± 0.0051
m1 = 0.00819	998.57 ± 0.16	997.41 ± 0.16	996.01 ± 0.16	994.4 ± 0.16	992.64 ± 0.16	–	–	–	–	–
m1 = 0.01628	998.83 ± 0.16	997.73 ± 0.16	996.31 ± 0.16	994.75 ± 0.16	992.98 ± 0.16	1.007 ± 0.008	0.8941 ± 0.007	0.8005 ± 0.0062	0.7224 ± 0.0055	0.6561 ± 0.0051
m1 = 0.03262	999.56 ± 0.16	998.36 ± 0.16	996.97 ± 0.16	995.44 ± 0.16	993.51 ± 0.16	1.011 ± 0.008	0.8978 ± 0.007	0.8035 ± 0.0062	0.7254 ± 0.0055	0.6588 ± 0.0051
m1 = 0.04903	1000.25 ± 0.16	999.09 ± 0.16	997.72 ± 0.16	996.14 ± 0.16	994.22 ± 0.17	1.015 ± 0.008	0.9012 ± 0.007	0.8067 ± 0.0062	0.7282 ± 0.0055	0.661 ± 0.0051
m1 = 0.06555	1000.89 ± 0.16	999.71 ± 0.16	998.32 ± 0.16	996.72 ± 0.16	994.91 ± 0.16	1.018 ± 0.008	0.9039 ± 0.007	0.8098 ± 0.0062	0.7312 ± 0.0056	0.6639 ± 0.0051
m1 = 0.0821	1001.66 ± 0.16	1000.45 ± 0.16	999.03 ± 0.16	997.41 ± 0.16	995.56 ± 0.16	1.022 ± 0.008	0.9074 ± 0.0071	0.8127 ± 0.0062	0.7338 ± 0.0056	0.6662 ± 0.0052
m1 = 0.09871	1002.29 ± 0.16	1001.09 ± 0.16	999.67 ± 0.16	998.05 ± 0.16	996.21 ± 0.16	1.026 ± 0.008	0.9109 ± 0.0071	0.8158 ± 0.0063	0.7364 ± 0.0056	0.6686 ± 0.0052
m1 = 0.1154	1003.05 ± 0.16	1001.8 ± 0.16	1000.33 ± 0.16	998.71 ± 0.16	996.84 ± 0.16	1.029 ± 0.008	0.9144 ± 0.0071	0.8192 ± 0.0063	0.7395 ± 0.0056	0.6713 ± 0.0052
m1 = 0.1321	1003.75 ± 0.16	1002.51 ± 0.16	1001.03 ± 0.16	999.39 ± 0.16	997.49 ± 0.16	1.033 ± 0.008	0.9178 ± 0.0071	0.8225 ± 0.0063	0.742 ± 0.0056	0.6742 ± 0.0052
